Some test systems named below: DU-145 prostate; RXF 393 renal; HCT-116 colon; SN12C renal; U251 CNS; SK-MEL-2 melanoma; HOP-62 NSCLC; NCI/ADR-RES ovarian; SF-295 CNS; HOP-92 NSCLC; MDA-MB-435.
What all share (test): growth of human tumour cells (NCI), 48 h

SMILES strings stand for the structures.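 Tested at 5 concentrations; 48 h exposure; 96-well plates; endpoints linearly interpolated, else capped at highest concentration. At the TGI there is no net growth.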

Take `O=P(O)(O)c1ccc(-c2ccc(I)cc2)cc1`: the TGI with DU-145 prostate, in the assay with RXF 393 renal, in the assay with HCT-116 colon, in the assay on SN12C renal, with U251 CNS and with SK-MEL-2 melanoma was over 100 µM in each case. The TGI in the assay with HOP-62 NSCLC and in the assay with NCI/ADR-RES ovarian was over 100 µM throughout.

`CC(=O)O[C@H]1C(=O)[C@@]2(C)[C@H]([C@H](OC(=O)c3ccccc3)[C@]3(O)C[C@H](OC(=O)[C@H](O)[C@@H](NC(=O)c4ccccc4)c4ccc5ccccc5c4)C(C)=C1C3(C)C)[C@]1(OC(C)=O)CO[C@@H]1C[C@@H]2O`: the TGI in the assay with SF-295 CNS is 1.89 µM; in the assay with RXF 393 renal, 1.77 µM; in the assay with HCT-116 colon, 0.237 µM; in the assay on SN12C renal, 17.2 µM; with HOP-92 NSCLC it was over 14 µM; in the assay with U251 CNS it was 1.46 µM. Besides, the TGI was 0.0238 µM with MDA-MB-435, 0.173 µM with SK-MEL-2 melanoma, 0.362 µM in the assay with HOP-62 NSCLC and over 50 µM in the assay with NCI/ADR-RES ovarian.

Regarding `COc1ccc2c(c1)CC[C@@H]1C2CC[C@]2(C)C(=O)N(CCN(C)C)C(=O)CC12` (some centres undefined), the TGI with SF-295 CNS, in the assay on DU-145 prostate, in the assay on RXF 393 renal, in the assay on HCT-116 colon, in the assay with SN12C renal and in the assay on HOP-92 NSCLC was over 100 µM in each case. Moreover, the TGI in the assay with U251 CNS, with MDA-MB-435 and in the assay on HOP-62 NSCLC was over 100 µM in each case.

As for `COc1cc(C2S/C(=C/c3ccccc3)C(=O)N2Cc2ccccc2)cc(OC)c1OC` (centres undefined), the TGI was over 100 µM in the assay with SF-295 CNS; over 100 µM with DU-145 prostate; 47 µM in the assay with HCT-116 colon; over 100 µM with SN12C renal; over 100 µM in the assay with HOP-92 NSCLC; over 100 µM in the assay on U251 CNS. The TGI with MDA-MB-435, with SK-MEL-2 melanoma, with HOP-62 NSCLC and in the assay on NCI/ADR-RES ovarian was over 100 µM each time.

`CN1C(=O)CC2(C)c3cc(O)cc(Br)c3N(C)C12` (centres undefined): the TGI in the assay on SF-295 CNS, in the assay on RXF 393 renal, in the assay on HCT-116 colon, in the assay with SN12C renal, in the assay with HOP-92 NSCLC and in the assay with U251 CNS was over 100 µM throughout. The TGI in the assay on SK-MEL-2 melanoma and in the assay on HOP-62 NSCLC was over 100 µM throughout.

`COC1=C[C@]2(CCC(=O)O2)[C@@H]2Cc3ccccc3[C@H](O)[C@@H]2C1=O`: the TGI is over 100 µM in the assay on SF-295 CNS; over 100 µM with HCT-116 colon; over 100 µM in the assay with SN12C renal; over 100 µM with HOP-92 NSCLC; 79.6 µM with U251 CNS; 31 µM with MDA-MB-435. Further, the TGI with SK-MEL-2 melanoma was 96.2 µM; in the assay with HOP-62 NSCLC, over 100 µM; in the assay on NCI/ADR-RES ovarian, over 100 µM.

For the compound `CCc1cc(C)cc2[n+]1CC=C2`, the TGI in the assay on SF-295 CNS is over 100 µM; with RXF 393 renal, over 100 µM; in the assay with HCT-116 colon, 48.2 µM; in the assay with SN12C renal, 78.6 µM; with HOP-92 NSCLC, 45 µM; in the assay on U251 CNS, over 100 µM. Further, the TGI was determined as 40.2 µM in the assay on SK-MEL-2 melanoma and 51.3 µM with HOP-62 NSCLC.

As for `CC(=O)c1ccccc1NC(=O)C(=O)C(C(=O)c1ccc2ccccc2c1)C1OC(=O)c2ccccc21` (centres undefined), the TGI in the assay with HCT-116 colon is 29.6 µM; in the assay on SN12C renal, 37.9 µM; in the assay on HOP-92 NSCLC, 41.1 µM; in the assay with U251 CNS it was 40.7 µM; in the assay on SK-MEL-2 melanoma, 24.9 µM; in the assay with HOP-62 NSCLC it was 28.4 µM.

As for `CC[C@@]1(O)C[C@H](OC2CC(N(C)C)C(O)C(C)O2)c2c(cc3c(c2O)C(=O)c2c(O)ccc(O)c2C3=O)[C@H]1C(=O)OC` (some centres undefined), the TGI amounted to 0.389 µM in the assay with SF-295 CNS; 0.258 µM in the assay on RXF 393 renal; 0.829 µM in the assay with HCT-116 colon; 1.47 µM in the assay on SN12C renal; 1.35 µM with HOP-92 NSCLC; 1.23 µM in the assay on U251 CNS. The values for the TGI with SK-MEL-2 melanoma, in the assay with HOP-62 NSCLC and with NCI/ADR-RES ovarian were 0.354 µM, 0.672 µM and 0.619 µM, respectively.

`Cc1ccccc1NC(=O)Cc1csc(N/N=C2\NC(=O)/C(=C/c3cccc([N+](=O)[O-])c3)S2)n1`: the TGI with SF-295 CNS is 41.8 µM; in the assay with DU-145 prostate, over 100 µM; in the assay with HCT-116 colon, over 100 µM; with SN12C renal it was over 100 µM; in the assay on HOP-92 NSCLC, 38.1 µM; with U251 CNS, 53.8 µM. Also, the TGI is 39.5 µM with MDA-MB-435, 71.1 µM with SK-MEL-2 melanoma, 92.5 µM in the assay on HOP-62 NSCLC and over 100 µM in the assay with NCI/ADR-RES ovarian.

On to `Nn1c(Nc2ccc(S(N)(=O)=O)cc2)nnc(/C=C/c2c(O)ccc3ccccc23)c1=O`, for which the TGI with SF-295 CNS is 96.8 µM; in the assay on DU-145 prostate, 91.2 µM; in the assay with HCT-116 colon, 34.1 µM; in the assay with SN12C renal, 27.3 µM; in the assay with U251 CNS, over 100 µM; with MDA-MB-435 it was 50.1 µM. The figures for the TGI with SK-MEL-2 melanoma, in the assay on HOP-62 NSCLC and in the assay with NCI/ADR-RES ovarian were over 100 µM, 56.7 µM and 54 µM, respectively.

As for `O=C(NC(=S)Nc1ccc([N+](=O)[O-])cc1)c1ccc2c(c1)Sc1ccccc1O2`, the TGI in the assay on SF-295 CNS, with DU-145 prostate, in the assay on HCT-116 colon, in the assay on SN12C renal, in the assay with HOP-92 NSCLC and in the assay with U251 CNS was over 100 µM each time. The TGI in the assay with MDA-MB-435, in the assay on SK-MEL-2 melanoma, with HOP-62 NSCLC and in the assay with NCI/ADR-RES ovarian was over 100 µM throughout.

Turning to `Fc1ccc(-c2sc(-c3ccsc3)cc2Cc2ccsc2)cc1`, the TGI in the assay with SF-295 CNS, in the assay with DU-145 prostate, in the assay with RXF 393 renal, in the assay with SN12C renal, in the assay with HOP-92 NSCLC and with MDA-MB-435 was over 10 µM each time. The compound also had a TGI in the assay with HOP-62 NSCLC of over 10 µM.

`CC#C[C@]1(O)CCC2[C@@H]3CCC4=CC(=O)CCC4=C3[C@@H](c3ccc(N(C)C)cc3)C[C@@]21C` (some centres undefined): the TGI with SF-295 CNS came out at 30.1 µM; in the assay on DU-145 prostate it was 73.1 µM; with HCT-116 colon, 39.6 µM; with SN12C renal, 52 µM; with HOP-92 NSCLC it was 8.55 µM; with U251 CNS it was 35.2 µM. For the same compound, the TGI came to 34 µM with MDA-MB-435, 50.3 µM with HOP-62 NSCLC and 89.3 µM in the assay with NCI/ADR-RES ovarian.

Take `COc1cc(C2c3cc4c(cc3OC(NNC(N)=O)C2C)OCO4)cc(OC)c1OC` (centres undefined): the TGI is 0.425 µM in the assay on SF-295 CNS; over 100 µM in the assay with DU-145 prostate; over 100 µM in the assay on RXF 393 renal; over 36.5 µM in the assay on HCT-116 colon; over 100 µM in the assay on SN12C renal; 8.18 µM with HOP-92 NSCLC. Further, the TGI in the assay with SK-MEL-2 melanoma and with NCI/ADR-RES ovarian was over 100 µM throughout.

As for `O=C1C=C(Nc2ccccc2C(=O)CC(=O)C(=O)Nc2ccc(Cl)cc2)c2ccccc2C1=O`, the TGI is 45.9 µM in the assay with RXF 393 renal; 28.8 µM in the assay with HCT-116 colon; 26 µM with SN12C renal; over 100 µM in the assay with HOP-92 NSCLC; 68.2 µM with U251 CNS; 34.3 µM in the assay with SK-MEL-2 melanoma. The TGI in the assay with HOP-62 NSCLC was 44.5 µM.

Regarding `COC(=O)[C@H](CC(C)C)NC(=O)[C@H](Cc1ccccc1)N1CC2C=CC1C2` (some centres undefined), the TGI in the assay on SF-295 CNS, in the assay with RXF 393 renal, with SN12C renal, with HOP-92 NSCLC, in the assay on U251 CNS and with SK-MEL-2 melanoma was over 100 µM throughout. For the same compound, the TGI in the assay on HOP-62 NSCLC was over 100 µM.

With `Nc1nc(NCCOCP(=O)(O)O)c([N+](=O)[O-])c(=O)[nH]1`, the TGI with SF-295 CNS, in the assay with RXF 393 renal, in the assay on HCT-116 colon, in the assay on SN12C renal, in the assay with HOP-92 NSCLC and in the assay on U251 CNS was over 100 µM each time. The TGI in the assay on SK-MEL-2 melanoma and with HOP-62 NSCLC was over 100 µM each time.

`CCC12CCCN(Cc3ccccc3)C1c1c(n(C)c3ccccc13)C(CO)C2` (centres undefined): the TGI was 64.7 µM with SF-295 CNS; over 257 µM in the assay with RXF 393 renal; 53.6 µM in the assay with HCT-116 colon; 81.2 µM with SN12C renal; 110 µM with HOP-92 NSCLC; 134 µM in the assay with U251 CNS. Also, the TGI with SK-MEL-2 melanoma was determined as 107 µM; in the assay on HOP-62 NSCLC, 73.6 µM.

For `CC(C)(C)N/N=C(\C(=O)Nc1cccc(Cl)c1)C1C(=O)Nc2ccccc2S1=O` (centres undefined), the TGI in the assay with SF-295 CNS, with RXF 393 renal, in the assay with SN12C renal, in the assay with HOP-92 NSCLC, in the assay with SK-MEL-2 melanoma and in the assay with HOP-62 NSCLC was over 100 µM throughout.

`O=c1cc(-c2ccccc2)[nH]c2ncccc12`: the TGI was 0.269 µM with SF-295 CNS; over 100 µM in the assay with DU-145 prostate; over 54 µM in the assay on HCT-116 colon; 7.54 µM in the assay on HOP-92 NSCLC; over 100 µM in the assay on HOP-62 NSCLC; 0.414 µM with NCI/ADR-RES ovarian.

Consider `COc1ccc2c(c1)Oc1cc(O)ccc1[C@H]2c1ccccc1C(=O)NC(C)c1ccccc1` (some centres undefined), for which the TGI with SF-295 CNS was 25.9 µM; in the assay on RXF 393 renal, 42 µM; in the assay on HCT-116 colon, 26.5 µM; in the assay on SN12C renal it was 31.6 µM; in the assay on U251 CNS it was 29.4 µM; in the assay with SK-MEL-2 melanoma it was 82.2 µM. The same compound returned a TGI in the assay on HOP-62 NSCLC of 44.6 µM.

As for `O=C(Cc1nc2ccc(C(=O)c3ccccc3)cc2[nH]c1=O)C(=O)Nc1nc2ccccc2[nH]1`, the TGI is over 100 µM in the assay with SF-295 CNS; over 100 µM in the assay on HCT-116 colon; over 100 µM in the assay with SN12C renal; 91.8 µM in the assay with HOP-92 NSCLC; over 100 µM in the assay on HOP-62 NSCLC.

The values are drawn from PubChem BioAssay (NCI).
